Patent publication US20260209269A1, “MANDELIC ACID SALT OF PALMITOYL LYSYLVALYL-LYSINE” (DSM IP Assets B.V., priority 2022, published 2026)

Assay: Stability in a cosmetic preparation (clear gel), peptide content after storage
Assay type: physicochemical

Substance	loss of active (after 3 months storage at 40° C.)	loss of active (after 1 months at 40° C.)
Palm-Lys-Val-Lys-OH*2MA [MA salt]	−19%	
Palm-Lys-Val-Lys-OH*2MPAA [MPAA salt]		52%
